# Measured values: patent US20250249056A1, “CANCER THERAPIES COMPRISING A NUCLEAR EXPORT INHIBITOR AND AN ONCOLYTIC VIRUS” (priority 2022, published 2025)
# Experiments:
# MYXV = MYXV infection of 3D spheroid cultures of human cancer cells (GFP/TdTomato fluorescence); assay type: cell-based, myxoma virus
# Description: In vitro three-dimensional (3D) cell culture allows cells to contact each other and form a platform representing in vivo tumor masses (Lv, D., et al., 2017, Oncology Letters, 14:6999-7010). As an initial test whether selinexor can enhance MYXV replication in tumor masses, a 3D cell culture using type 1 collagen was established. The semi-permissive and non-permissive human cancer cells PANC-1 (FIG. 6A), MDA-MB435 (FIG. 6C), HT29 (FIG. 6E), and Colo205 (FIG. 6G) were used to form 3D spheroids in 96 well plates. After several days of incubation, the cells formed spheroids.
# After reaching a desirable size, spheroids were mock-treated or treated with different concentrations of selinexor (e.g., 0.1 μM, 1 μM) for one hour then infected with vMyx-GFP-TdTomato (1×10^7 FFU) in the presence of selinexor.
# Spheroid Generation and Virus Infection: Different cancer cell lines were grown and maintained as previously described and used for spheroid generation within 2-5 passages. 96-well plates were prepared with rat tail collagen I to form the surface for spheroid culture. On the day of cell seeding for spheroid generation, the cells were dissociated with TrypLE, the TrypLE neutralized with fresh complete media, the cells spun down, and resuspended in fresh complete media. After making a single cell suspension, cells were counted using a Countess II automated cell counter and 1000 cells in 100 μL were plated on the surface of the collagen matrix. The cells were observed daily for spheroid formation. After 5-7 days, when spheroids reached the desired size, they were treated with selinexor and infected with vMyx-GFP-TdTomato.
# Colo205 xenograft tumors = assay: Colo205 xenograft tumor model in NSG mice; assay type: in vivo
# Method: (§1) To test the ability of selinexor to enhance MYXV replication in vivo, a xenograft tumor model was established in immunodeficient NSG mice. Human Colo205 (FIG. 7) and HT29 (FIG. 8) cells were injected subcutaneously on both sides of the flank to generate tumors (FIG. 7A). After the tumors size reached between 100-200 mm^3 (2-3 weeks), mice were separated into treatment groups to have approximately equal average tumor sizes. Animals (n=5) were treated with PBS (oral and IT right tumor), selinexor (oral, 15 mg/kg), vMyx-Fluc (wild-type MYXV expressing Firefly luciferase and TdTomato; IT left tumor, 1×10^7 FFU), or selinexor (oral) and vMyx-Fluc (IT left tumor). After 48 hours post-treatment mice were imaged using an IVIS system for luciferase expression. […] Subsequently, mice received 2nd and 3rd doses of selinexor and a second IT injection of MYXV in the same tumor. […] Additionally, tumor burden was measured on both flanks during the course of treatment (FIG. 7F, FIG. 7G, FIG. 8E, and FIG. 8F).
# (§2) Animal Studies: Male and female NSG mice were purchased from Jackson laboratory at 6-8 weeks of age. Animals were housed under sterile conditions. The animals were acclimatized for at least seven days before tumor implantation or any experimental procedures. Cells (1×10^6/mouse in 100 μL PBS) were subcutaneously injected into the flanks of NSG mice. When the average tumor volumes reached 50-200 mm^3, the mice were randomized into different treatment groups of five or six animals such that each treatment group had approximately the same average tumor volume. Tumor volume was measured two or three times per week as follows: volume=(length×width^2)/2. When the tumor volume reached 1.5-2 cm^3 animals were euthanized and tumors were collected for histology or processed for virus titration. To detect MYXV replication in the tumor bed luciferin was injected via IP delivery and bioluminescence images taken (Xenogen IVIS 2000).
# PANC-1 cells = assay: CyQUANT NF cell proliferation assay (PANC-1); assay type: cell-based, human; conditions: after 24 hours compared to mock treated cells, selinexor 0.1 or 1 μM, multiple MOI
# Method: Cell Proliferation Assay: To measure cancer cell proliferation based on the amount of cellular DNA, the CyQuant™ NF Cell Proliferation Assay Kit (Invitrogen) was used according to the manufacturer's instructions. Briefly, PANC-1, HT29, MDA-MB435, and Colo205 cells were seeded in a 96-well plate (1×10^4 cells/well) and left to attach to the wells overnight. The next day, the medium was removed and replaced with 50 μL medium containing different concentrations of selinexor (0-1 μM). After an hour of incubation with selinexor, the virus was added to different MOIs (0.5-5), bringing the end volume of every well up to 100 μL. A 1× dye binding solution was prepared by adding 9 μL of the CyQuant™ NF Dye reagent in 4.5 mL Hank's Balanced Salt Solution (HBSS) buffer (Invitrogen). After 24, 48, 72, and 96 hours of incubation, the medium was removed from the cells and 50 μL 1× dye solution was added to all wells. The microplate was covered to protect it from light and was incubated for 30-60 minutes in a 5% CO2 incubator at 37° C. Subsequently, cell proliferation was quantified by measuring fluorescence with an excitation of 485 nm and emission of 530 nm in a VarioSkan Lux Microplate reader (Thermo Fisher). All experiments were performed in quadruple and normalized to mock-treated cells.
# HT29 xenograft tumors = assay: HT29 xenograft tumor model in NSG mice; assay type: in vivo
# Method: as §1, §2
# PANC-1 xenograft tumors = assay: PANC-1 xenograft tumor model in NSG mice; assay type: in vivo
# Method: Based on the in vivo results showing selinexor enhances MYXV replication in the tumor bed and reduces the tumor burden in Colo205 and HT29 xenograft tumors, the treatment was examined in PANC-1 xenograft tumors. Human PANC-1 cells were injected subcutaneously on both sides of the flank to generate tumors (FIG. 11A). After the tumor size reached ˜50-100 mm^3 (2-3 weeks), animals were randomly assigned to treatment groups to have approximately equal average tumor size. Animals (n=6) were then treated with PBS, selinexor, MYXV, or selinexor+MYXV. Animals received a total of four treatments within the first two weeks and tumor burden was measured 2-3 times every week. After the first treatment, mice were imaged using the IVIS system for luciferase expression at 24 and 72 hours post-treatment (FIG. 11B and FIG. 11C). […] After imaging and measuring luciferase signals, three additional treatments to test their therapeutic effect on tumor burden and survival were administered.
# Luciferase signals in animals were also measured before the endpoint to confirm the presence of the virus in the tumor bed after the final (fourth) injection. […] Luciferase signal was measured again 23 days after the last viral injection, at which point high luciferase activity was still observed in each group (FIG. 13C). At the endpoint, tumors were collected and virus titration assays were performed (FIG. 13D). […] In both tumors, although not significant, viral load was higher in selinexor+MYXV treated mice than mice treated with MYXV alone.
# Animal Studies: Male and female NSG mice were purchased from Jackson laboratory at 6-8 weeks of age. Animals were housed under sterile conditions. The animals were acclimatized for at least seven days before tumor implantation or any experimental procedures. Cells (1×10^6/mouse in 100 μL PBS) were subcutaneously injected into the flanks of NSG mice. […] Tumor volume was measured two or three times per week as follows: volume=(length×width^2)/2. […]
# [1] = 48 hours after first vMyx-Fluc IT injection, selinexor oral 15 mg/kg
# [2] = both flanks, selinexor oral 15 mg/kg, vMyx-Fluc IT 1×10^7 FFU
smiles,measurement,setting,value
O=C(/C=C\n1cnc(-c2cc(C(F)(F)F)cc(C(F)(F)F)c2)n1)NNc1cnccn1 [selinexor],GFP (early/late) and TdTomato (late) expression in spheroids by fluorescence microscopy,"MYXV; PANC-1, MDA-MB435, HT29, Colo205 spheroids, selinexor 0.1 or 1 μM, vMyx-GFP-TdTomato 1×10^7 FFU",enhanced
same,virus penetration into spheroids,MYXV; selinexor plus MYXV compared to MYXV infection alone,greater penetration into the spheroid interior
same,quantification of GFP fluorescence in spheroids,"MYXV; selinexor-treated vs untreated infected spheroids, 72-96 h post-infection",significant increase in the level of GFP expression
same,luciferase expression (IVIS) vs virus alone,Colo205 xenograft tumors; [1],significantly higher levels of luciferase
same,luciferase signal (IVIS) vs virus alone,Colo205 xenograft tumors; after second treatment,significantly enhanced level of luciferase signal
same,tumor burden compared to PBS or MYXV-only,Colo205 xenograft tumors; [2],significantly reduced tumor burden
same,cell proliferation (DNA content),PANC-1 cells,significant reductions in cell proliferation
same,luciferase expression (IVIS) vs virus alone,HT29 xenograft tumors; [1],significantly higher levels of luciferase
same,luciferase signal (IVIS) vs virus alone,HT29 xenograft tumors; after second treatment,significantly enhanced level of luciferase signal
same,tumor burden compared to PBS or MYXV-only,HT29 xenograft tumors; [2],significantly reduced tumor burden
same,luciferase signals (IVIS) vs virus alone,PANC-1 xenograft tumors; 24 and 72 hours after first treatment,significantly higher levels of luciferase signals
same,tumor burden compared to PBS or MYXV alone,PANC-1 xenograft tumors; four treatments within first two weeks,significant reduction in tumor burden
same,survival compared to PBS or MYXV alone,"PANC-1 xenograft tumors; mouse, in vivo",survived significantly longer
